According to patent publication US12178807B2, “Macrocyclic tyrosine kinase inhibitor and uses thereof” (XUANZHU BIOPHARMACEUTICAL CO., LTD., priority 2018, dated 2024):

Legend:
[1] = test system: Ba/F3 LMNA-NTRK1-G595R cell line; experiment: In vitro cytological inhibitory activity (CelltiterGlo assay); type: cell-based; details: Mus musculus, BaF3, Ba/F3 LMNA-NTRK1-G595R cells, 72 hrs
Experimental: (§1) The cell lines used in the experiment have the following meanings: Ba/F3 LMNA-NTRK1-G595R cell line: • a stable expression cell line of Ba/F3 cells transfected with LMNA-NTRK1 G595R; Ba/F3 ETV6-NTRK3-G623R cell line: • a stable expression cell line of Ba/F3 cells transfected with ETV6-NTRK3-G623R. Experimental Method (CelltiterGlo Assay) 1. Cell Culture and Inoculation
(§2) All cells were suspension cells and the medium was RPMI-1640+10% FBS, and cells were tested in a logarithmic growth phase.
(§3) Cells in the logarithmic growth phase were collected and counted using a […]. The cell viability was detected by the trypan blue exclusion method, and the cell viability was kept over 90%. The cell concentration was adjusted to be in a proper range; 90 μL of the cell suspension was added to a 96-well plate.
(§4) The stock solutions of test compounds were diluted from 10 mM to 1 mM with DMSO and then serially diluted in a 3-fold gradient for 9 concentrations. The 2 μL DMSO-gradient diluted compound solutions were added to 98 μL culture solutions to give working stock solutions of test compounds (compound concentration was 10-fold higher than the final concentration, DMSO concentration was 1%, maximum concentration was 10 μM).
(§5) • 10 μL of compound working stock solution was added to each well in the 96-well plate inoculated with cells (10-fold dilution, final DMSO concentration was 0.1%).
(§6) The cells were cultured in a cell culture incubator at 5% CO2 for 72 hrs.
(§7) The CTG reagent was thawed and the cell plate was equilibrated to room temperature for 30 mins, 60 μL of reagent (Celltiter Glo assay kit) was added to each well, shaking was performed for 2 mins with a shaker (in the absence of light), and the plate was incubated at room temperature for 10 mins (in the absence of light). The light signal values were read on the multi-functional microplate reader.
(§8) • 1) Inhibition (%)=(DMSO solvent control well reading−test compound well reading)/(DMSO solvent control well reading−blank well reading)×100%; • 2) a curve was plotted with GraphPad Prism 5.0 and IC50 was obtained.

[2] = test system: Ba/F3 ETV6-NTRK3-G623R cell line; experiment: as above; type: cell-based; details: Mus musculus, BaF3, Ba/F3 ETV6-NTRK3-G623R cells, 72 hrs
Experimental: as §1, §2, §3, §4, §5, §6, §7, §8

[3] = test system: BaF3-LMNA-NTRK1-G595R stable cell strain xenograft tumor; experiment: Efficacy study on BaF3-LMNA-NTRK1-G595R stable cell strain subcutaneous xenograft model; type: in vivo, mice (NOD-SCID); details: bid, p.o., 7 days
Experimental: The RPMI 1640 serum-free medium resuspended BaF3 LMNA-NTRK1-G595R stable cell strains were inoculated subcutaneously in the right scapular region of mice (NOD-SCID) at 1×10^6 cells/mouse (0.1 mL/mouse).
When the average tumor volume was around 500 mm^3, the groups were randomized into vehicle group, Compound 3 group (10 mg/kg, 5 mg/kg, 3 mg/kg, 1 mg/kg, bid) and LOXO-195 group (30 mg/kg, 10 mg/kg, 3 mg/kg, bid).

[4] = test system: Ba/F3 SLC34A2/ROS1-G2032R cell line; experiment: In vitro cytological inhibitory activity (Celltiter-Glo assay); type: cell-based; details: Mus musculus, BaF3, Ba/F3 SLC34A2/ROS1-G2032R cells, 72 hrs
Experimental: The cell lines used in the experiment have the following meanings: • Ba/F3 SLC34A2/ROS1-G2032R cell line: • a stable expression cell line of Ba/F3 cells transfected with SLC34A2/ROS1-G2032R. Experimental Method (Celltiter-Glo Assay) 1. Cell Culture and Inoculation
as §2, §3
The stock solutions of test compounds were diluted from 10 mM to 1 mM with DMSO and then serially diluted in a 3.16-fold gradient for 9 concentrations. The 2 μL DMSO-gradient diluted compound solutions were added to 98 μL culture solutions to give working stock solutions of test compounds (compound concentration was 10-fold higher than the final concentration, DMSO concentration was 1%, maximum concentration was 10 μM).
as §5
The final concentrations of test compounds were: 1000 nM, 316 nM, 100 nM, 31.6 nM, 10 nM, 3.16 nM, 1 nM, 0.316 nM and 0.1 nM.
as §6
The CTG reagent was thawed and the cell plate was equilibrated to room temperature for 30 mins, 100 μL of reagent (Celltiter Glo assay kit) was added to each well, shaking was performed for 5 mins with a shaker (in the absence of light), and the plate was incubated at room temperature for 20 mins (in the absence of light). The light signal values were read on the multi-functional microplate reader.
• 1) Cell viability (%)=(test compound well reading−blank well reading)/(DMSO solvent control well reading−blank well reading)×100%; • 2) a curve was plotted with GraphPad Prism 5.0 and IC50 was obtained.

SMILES	IC50 [1] [nM]	IC50 [2] [nM]	T/C (%) ([3]; Experiment 1, 3 mg/Kg)	TGI (%) ([3]; Experiment 1, 3 mg/Kg)	IC50 [4] [nM]	also measured
C[C@H]1COc2ncc(F)cc2[C@H]2CCCN2c2ccc3ncn(c3n2)C(=O)N1 (single isomer, unassigned) [Compound 2]	0.6	1	–	–	–	–
C[C@@H]1COc2ncc(F)cc2[C@H]2CCCN2c2ccc3ncn(c3n2)C(=O)N1 (single isomer, unassigned) [Compound 3]	0.6	1	73.2	26.8	2.3	T/C (%) ([3]; Experiment 2, 1 mg/Kg): 53.7%; TGI (%) ([3]; Experiment 2, 1 mg/Kg): 46.3%; T/C (%) ([3]; Experiment 2, 5 mg/Kg): 0%; TGI (%) ([3]; Experiment 2, 5 mg/Kg): 100%; T/C (%) ([3]; Experiment 2, 10 mg/Kg): 0%; TGI (%) ([3]; Experiment 2, 10 mg/Kg): 100%
C[C@@H]1CCc2ncc(F)cc2[C@H]2CCCN2c2ccc3ncn(c3n2)C(=O)N1 (single isomer, unassigned) [Compound 11]	2	1.9	–	–	4.2	–
C[C@H]1COc2ncc(F)cc2[C@@H](C)Nc2ccc3ncn(c3n2)C(=O)N1 [Compound 13, (3R,7S)-4^5-fluoro-3,7-dimethyl-1^3H-5-oxa-2,8-diaza-1(5,3)-imidazo[4,5-b]pyridina-4(3,2)-pyridinacyclononphan-9-one]	17.3	18.9	–	–	6.7	–
C[C@@H]1CCc2ncc(F)cc2[C@H]2CCCN2c2ccn3ncc(c3n2)C(=O)N1 [LOXO-195, reference compound]	–	–	93.6	6.4	–	T/C (%) ([3]; Experiment 1, 10 mg/Kg): 63.1%; TGI (%) ([3]; Experiment 1, 10 mg/Kg): 36.9%; T/C (%) ([3]; Experiment 2, 30 mg/Kg): 0%; TGI (%) ([3]; Experiment 2, 30 mg/Kg): 100%
